Measured values: PubChem BioAssay AID2305 (GlaxoSmithKline (GSK), 2010)

Test system: P. falciparum 3D7 growth, pLDH absorbance
Assay: blood-stage malaria parasite growth potency – strain 3D7, dose response (AID 2305)

| SMILES | IC50 [µM] |
| --- | --- |
| Cc1cccc(NC(=S)NC2CCN(CCCCCNC(=O)/C=C/c3ccc(Cl)c(Cl)c3)CC2)c1 | 0.95 |
| CCOc1ncccc1CN1CCC(N2CCc3cc(NC(=O)c4cc(C)on4)ccc32)C1 (configuration not stated) | 0.31 |
| CN(C)c1ccc(NC(=O)Nc2ccnc3ccc(Br)cc23)cc1 | 0.87 |
| N/C(=N\c1ncccn1)Nc1cccc(Cc2ccccc2)n1 | 0.93 |
| COc1ccc(-c2cncc3ccc(C(=O)NCc4ccncc4)nc23)cc1 | 0.74 |
| COc1ccc(CCCN2C(=O)C(c3ccccc3)(c3ccccc3)N=C2N)cc1 | 1.05 |
| Cn1c(NC2=NC3(c4ccccn4)N=C(Nc4nc5ccccc5n4C)NC3(c3ccccn3)N2)nc2ccccc21 (configuration not stated) | 1.04 |
| O=C(/C=C/c1ccccc1Cl)NC1CCC(CN2CCC(c3c[nH]c4ccncc34)CC2)CC1 (configuration not stated) | 0.33 |
| Cc1ccc2c(=O)cc(CCc3cccc(F)c3F)n(CC(=O)N(Cc3ccc(-c4ccc(C(F)(F)F)cc4)cc3)C3CCN(C(C)C)CC3)c2n1 | 0.78 |
| O=C(O)c1ccc2nc(-c3ccc(-c4ccccc4)cc3)n(C3CCN(Cc4ccc(-c5ncc[nH]5)cc4)CC3)c2c1 | 1.73 |
| Cc1[nH]c(C)c(-c2ccc(-c3ccccc3Cl)nc2)c(=O)c1Cl | 0.22 |
| COc1ccc2c(NN=Cc3ccccc3Cl)cc(C)nc2c1 | 0.37 |
| Fc1cccc(COc2ccc(Nc3ncnc4sc(C#C[C@H]5CC[C@H](CN6CCOCC6)N5)cc34)cc2Cl)c1 | 0.92 |
| COc1ccc(C(F)(F)F)cc1N1CCN(CCCCNC(=O)c2ccc(NC(=O)c3ccc(Cl)cc3)cc2)CC1 | 0.91 |
| Cc1ccc(-c2[nH]n3c(=O)c4c(nc3c2C)CCCC4)cc1 | 0.22 |
| O=C(NC1CCCC1)c1ccc(N2CCC(NCc3cc4cc(Cl)ccc4[nH]3)CC2)cc1 | 1.22 |
| CCN(CC)CCNC(=O)c1ccc(NC(=O)c2cn(-c3ccccc3)nc2-c2cccs2)cc1 | 0.26 |
| CCCc1ccc(S(=O)(=O)NC2CCN(C(=O)Nc3ccc(I)cc3)CC2)cc1 | 0.87 |
| COc1ccc(-c2cc(C(=O)Nc3ccc4nc(-c5ccccc5)[nH]c4c3)[nH]n2)cc1 | 0.7 |
| Cc1cc(C(F)(F)F)n2nc(C3CCN(Cc4cc(C)c(O)c(C)c4)C3)cc2n1 (configuration not stated) | 0.76 |
| COc1ccc2nccc(NCC3(O)CCN(CC(O)c4ccc5c(c4)NC(=O)CS5)CC3)c2n1 (configuration not stated) | 0.83 |
| CN(C(=O)C(C)(C)Oc1ccc(Cl)cc1)C1CCN(CCCCCNC(=O)/C=C/c2ccc(Cl)c(Cl)c2)CC1 | 0.92 |
| CCOC(=O)c1ccc(NC(=O)Nc2ccc(Cn3ncc(N4CCCNCC4)c(Cl)c3=O)cc2)cc1 | 0.44 |
| COc1ccc(NC(=O)Nc2cccc(-c3cccc(-c4nc5c(C)cccc5[nH]4)c3)c2)cc1 | 0.4 |
| CCOc1ccc(OCC)c(N2CCN(CCCCNC(=O)c3ccc(NC(=O)c4ccc(Cl)cc4)cc3)CC2)c1 | 0.59 |

| SMILES | IC50 [µM] |
| --- | --- |
| Cc1[nH]c(C)c(-c2ccc(Oc3ccc(Cl)c(Cl)c3)cc2)c(=O)c1Cl | 0.11 |
| Cc1cc(N(C)CCN(C)C)nc(Nc2ccc(Cl)cc2)n1 | 0.97 |
| Nc1nc(N)c(-c2ccccc2)c(=O)[nH]1 | 1 |
| CN(C(=O)c1ccc(Br)cc1)c1ccccc1[N+](=O)[O-] | 0.93 |
| COc1ccc(-c2cccc(NC(=O)c3ccc(C#N)cc3)c2)cc1CN1CCN(C)CC1 | 0.99 |
| CN1Cc2cc(NC(=O)/C=C/c3ccccc3Cl)ccc2C(C)(C)C1 | 0.64 |
| CN(C)c1ccc(C=CC(=O)NC(=O)c2ccccc2O)cc1 | 0.23 |
| Cn1c(NC(=O)c2ccc(CNC(=O)c3ccc(O)c(-c4ccc(Cl)c(Cl)c4)c3)cc2)nc2ccccc21 | 0.84 |
| NC1=NC(Cc2ccccc2)(c2ccncc2)C(=O)N1CCCc1ccccc1 (configuration not stated) | 0.94 |
| CN1CCCN(Cc2ccc(-c3cccc(NC(=O)c4cccc(F)c4)c3)cc2)CC1 | 0.98 |
| Fc1ccc(-c2nc(NCc3cccc(C(F)(F)F)c3)nn2-c2cccc(C(F)(F)F)c2)cc1C(F)(F)F | 1.05 |
| CCN(CCN(C)C)Cc1ccc(-c2ccc(NS(=O)(=O)c3cccc4cccnc34)cc2)cc1 | 0.93 |
| O=C(Nc1ccc(CC(=O)N2CCc3cc(Cl)c(N4CCN(C/C=C/c5ccccc5)CC4)cc32)cc1)Nc1cccc([N+](=O)[O-])c1 | 0.76 |
| CCCCOc1ccc(CNCCCCCCNCc2ccc(OCCCC)c3ccccc23)c2ccccc12 | 1.13 |
| CCOC(=O)C(C#N)NC(=O)C=Cc1ccccc1 (configuration not stated) | 0.8 |
| NC(=O)C1CCN(Cc2ccc(-c3ccc(-c4nc5ccc(C(F)(F)F)cc5[nH]4)cc3)cc2)CC1 | 0.68 |
| Cc1cccc2[nH]c(-c3ccc(-c4cccc(NCc5cn6cccnc6n5)c4)cc3)nc12 | 0.79 |
| O=C(NC1CC1)c1ccc(N2CCCC(COc3ccccc3F)C2)nc1 (configuration not stated) | 0.9 |
| CS(=O)(=O)c1ccc(-c2nc(NCC3CCCCC3)cc(C(F)(F)F)n2)cc1 | 0.67 |
| C[C@@H]1C[C@@H]([C@H](O)CC2CC(=O)NC(=O)C2)C(=O)[C@@H](C)C1 | 0.53 |
| O=C(N[C@@H](CC1CCCCC1)C(=O)NC1CCCc2ccccc21)c1ccc(O)c(-c2cccc(C(F)(F)F)c2)c1 (some centres not stated) | 0.6 |
| CCCCCOc1ccc(NC2=CC(=O)C(=O)c3ccccc32)cc1 | 0.24 |
| O=C(NCCCCN1CCC(c2ccc3c(c2OCc2ccncc2)CCCC3)CC1)c1ccc(-c2ccc(C(F)(F)F)cc2)cc1 | 0.17 |
| O=C(Nc1ccc(Cl)cc1)c1ccc(CN2CCCN(Cc3ccc(F)cc3)CC2)cc1 | 0.97 |
| O=[N+]([O-])c1cnc(Nc2ccccc2O)nc1Nc1ccccc1O | 0.9 |

| SMILES | IC50 [µM] |
| --- | --- |
| O=C(Nc1cccc(-c2nn3ncccc3c2-c2ccnc(Nc3ccc(N4CCOCC4)cc3)n2)c1)c1c(F)cccc1F | 0.16 |
| Cc1c(C)n(Cc2ccccc2)c2ncnc(OC3CCN(CC(=O)NCC4CC4)CC3)c12 | 1.12 |
| NC(=O)C1CCN(Cc2cccc(-c3cccc(-c4nc5ccc(F)cc5[nH]4)c3)c2)CC1 | 0.85 |
| Cc1ccc(Nc2nc(C)cc(N3CCN(CCc4ccccc4)CC3)n2)cc1 | 0.97 |
| O=C(NC1CC1)c1cnc(N2CCC(Cc3ccccc3)CC2)c(Cl)c1 | 0.67 |
| Nc1oc2c(CN3CCCCCC3)c(O)ccc2c(=O)c1-c1nc2ccccc2s1 | 0.52 |
| O=C(NC1CCCCC1)N(Cc1ccc(-c2ccc(CNCc3ccc4c(c3)OCO4)cc2)cc1)C1CCN(Cc2ccccc2)CC1 | 0.69 |
| Cc1cccc2[nH]c(-c3ccc(-c4ccc(CN5CCCC(O)C5)cc4)s3)nc12 (configuration not stated) | 0.83 |
| COc1ccc(CCNC(=O)c2ccc(-n3cc(NC(=O)c4cccnc4)cn3)cc2)cc1OC | 1.07 |
| CC(C)c1cc(Oc2c(I)cc(CCNCc3ccccc3)cc2I)ccc1O | 0.54 |
| CC[C@H]1CN2CCc3c([nH]c4ccccc34)[C@@H]2C[C@@H]1CC1c2cc(OC)c(OC)cc2CCN1C (some centres not stated) | 1.09 |
| Cc1[nH]c(C)c(-c2ccc(OCc3ccc(OC(F)(F)F)cc3)nc2)c(=O)c1Cl | 0.07 |
| CCN1CCN(c2cc(C)c3cc(NC(=O)c4ccc(OC)c([N+](=O)[O-])c4)ccc3n2)CC1 | 0.55 |
| COc1ccc(Cl)cc1N1CCN(CCCNC(=O)c2ccc(-c3nc4cc5ccccc5cc4[nH]3)c(F)c2)CC1 | 0.8 |
| CNC(=O)c1cnc(Nc2ccc(OCC(O)CN(C)C)cc2)nc1Nc1cccc(OC(C)C)c1 (configuration not stated) | 0.14 |
| CCc1c(C(=O)NC2CCC(N3CCC(c4ccccc4OC)CC3)CC2)[nH]c2ccc(Br)cc12 (configuration not stated) | 1.12 |
| Cc1nc(N)nc(N)c1-c1ccc(Br)c([N+](=O)[O-])c1 | 0.2 |
| Cc1cccc2[nH]c(-c3ccc(-c4cccc(NC(=O)c5ccncc5)c4)cc3)nc12 | 0.84 |
| FC(F)(F)c1ccc2nc(-c3ccc(-c4cccc(CNCCN5CCNCC5)c4)cc3)[nH]c2c1 | 1.03 |
| O=C(Cc1cc(=O)oc2cc(O)ccc12)NC1CCC(CN2CCC(c3c[nH]c4ccccc34)CC2)CC1 (configuration not stated) | 1.13 |
| C[C@H](O)[C@@](C)(CO)NCc1ccc2c3c(cccc13)-c1ccccc1-2 | 0.82 |
| O=C(NC1CCC(CCN2Cc3ccc(Br)cc3C2)CC1)c1cccc(-c2cccnc2)c1 (configuration not stated) | 0.93 |
| COc1ccc2[nH]c(C(=O)Nc3ccc4nc(-c5ccccc5)[nH]c4c3)cc2c1 | 0.83 |
| CCOc1ccc(C(C)NC(=O)Cc2ccccc2F)cc1OCC (configuration not stated) | 0.84 |
| CCOc1cc(C(=O)NC2CCN(Cc3ccccc3)C2)ccc1-c1nc2ccc(Cl)cc2[nH]1 (configuration not stated) | 1.01 |

| SMILES | IC50 [µM] |
| --- | --- |
| O=C(Nc1ccc(-c2cccc(-c3nc4ccc(F)cc4[nH]3)c2)cc1)Nc1ccsc1 | 0.69 |
| O=c1ccc2ccc(F)c3c2n1CC3CN1CCC(NCc2ccc(-c3cccc(Cl)c3)nc2)CC1 (configuration not stated) | 0.99 |
| COc1ccc(C(=O)CCC(=O)N(CCSC(C)(C)C)Cc2ccc(-c3ccc(CNCCc4ccc(S(C)(=O)=O)cc4)cn3)cc2)cc1F | 0.63 |
| COC1(C)Oc2ccc3cccc([N+](=O)[O-])c3c2C1=O (configuration not stated) | 0.63 |
| COc1cccc(Cc2c(C)nc3nc(N)nc(N)c3c2C)c1 | 0.88 |
| CN(C)Cc1ccc(-c2cccc(NC(=O)c3cccc(Cl)c3)c2)cc1 | 0.69 |
| O=S1(=O)C=C(c2ccccc2)CC1 | 0.2 |
| Cc1cccc2[nH]c(-c3ccc(-c4cccc(NC(=O)NCc5cccc(F)c5)c4)cc3)nc12 | 0.85 |
| CN(C)CCOc1ccc(-c2cc(-c3ccc(Cl)c(O)c3)c(-c3ccnc(N)n3)o2)cc1 | 1.32 |
| CCCN1CCC=C(c2cccc(Nc3nccc(Nc4cc(OC)ccc4C)n3)c2)C1 | 1.04 |
| Cc1ccc(C)c(NC(=O)Nc2ccc(C)c(-c3ccc(C(=O)Nc4ccncc4)cc3)c2)c1 | 0.62 |
| CN1CCN(c2ccc(-c3cccc(NC(=O)c4cccc(Cl)c4)c3)nn2)CC1 | 0.58 |
| Cc1ccc(Cn2cnc(N3CC(C)NC(C)C3)cc2=O)cc1NC(=O)Nc1ccc(-c2ccccc2)cc1 (configuration not stated) | 0.85 |
| COc1ccc(-c2cn3c(C(=O)Nc4ccccc4Cl)c(-c4ccccc4)c4c3n2CCCC4)cc1 | 0.79 |
| COc1ccc2nc(C)cc(NCc3ccc4ccccc4c3)c2c1 | 0.47 |
| Cc1ccc(C(=O)Nc2ccc(-c3nc4ccccc4[nH]3)cc2)cc1S(=O)(=O)N1CCOCC1 | 1.21 |
| COc1ccccc1N1CCN(CCCCNC(=O)c2ccc(NC(=O)c3ccc(C(F)(F)F)cc3)cc2)CC1 | 0.3 |
| CC(CNC(=O)C(c1cc2ccccc2o1)N1CCN(C(c2ccccc2)c2ccccc2)CC1)c1ccccc1 (configuration not stated) | 0.63 |
| CCc1nc(N)nc(N)c1-c1ccccc1 | 1.18 |
| Cn1ccnc1CNC(=O)c1ccc(-c2cccc(-c3nc4ccc(F)cc4[nH]3)c2)cc1 | 0.98 |
| Cc1nc(N)nc(N)c1Oc1cccc(Cl)c1 | 0.87 |
| CCN(CCNC(=O)C1CCN(c2cc(-c3cccc(C)c3)ncn2)CC1)Cc1ccccc1 | 0.17 |
